Source: patent EP2608671B1, “COMPOUNDS FOR TREATMENT OF CANCER” (Gtx, Inc., priority 2010, dated 2012)
Read-outs that look alike come from different tables or passages of the source.

How the values were obtained:
NCI/ADR-RES = test: SRB growth inhibition, P-gp over-expressing MDR line; assay type: cell-based, human; conditions: Homo sapiens, NCI/ADR-RES; MDR1 overexpressed, n=3; read-out: IC50 ± SEM (nmol/L) NCI/ADR-RES
MDA-MB-435 = test: SRB growth inhibition, sensitive parent melanoma line; assay type: cell-based; conditions: Homo sapiens, MDA-MB-435; parental cell line, n=3; read-out: IC50 ± SEM (nmol/L) MDA-MB-435
MRP = test: Growth inhibition in MRP-mediated resistant cells (Table 14B); assay type: cell-based; conditions: n=3
[1] = test system: cancer and MDR cell lines with different resistance mechanisms; test: Growth inhibition in other cancer and MDR cell lines of Table 14B; assay type: cell-based; conditions: n=3
OVCAR-8 = test: SRB growth inhibition, MDR model parent line; assay type: cell-based, human; conditions: Homo sapiens, OVCAR-8; parental cell line, n=3; read-out: IC50 ± SEM (nmol/L) OVCAR-8
WM-164 = test: SRB cell growth inhibition (cytotoxicity) assay; assay type: cell-based, human; conditions: Homo sapiens
MDA-MB-435/LCC6MDR1 = test: SRB growth inhibition, multidrug-resistant melanoma line; assay type: cell-based; conditions: MDA-MB-435/LCC6 MDR1; MDR1 overexpressed, n=3; read-out: IC50 ± SEM (nmol/L) MDA-MB-435/LCC6MDR1
A375 = test: SRB cell growth inhibition (cytotoxicity) assay; assay type: cell-based, human; conditions: Homo sapiens, A-375; Table 14B, n=3; read-out: IC50 ± SEM (nmol/L) A375
WM-164 melanoma cells = test: Microtubule imaging (immunofluorescence); assay type: cell-based, human; conditions: 18 h treatment
Description: Primary antibody for tubulin and fluorescence-labeled secondary antibody were subsequently added to the cells. Cell nuclei were stained by DAPI. Whole Cell Stain Green was also applied to all cells. All images were acquired with an Olympus IX71 inverted fluorescence microscope (Olympus Corp., Tokyo, Japan) with overlays from separate images of tubulin (red), nuclei (blue), and whole cells (green).

[2] = test system: HUVECs (Human Umbilical Vein Endothelial Cells); assay type: cell-based
HUVEC monolayers = test: Endothelial monolayer permeability assay; assay type: cell-based, human; conditions: leakage of dextran after 1, 2, 4 h
T47D = assay type: cell-based, human
PC-3 = test: cells; conditions: read-out: IC50 PC3
Description: The only compounds which belong to the invention are the ones falling under the scope of formula (XI).
Cells were stained with SRB solution.
Cells. […] Cells between the third and fifth passages were used for experiments.
Cell growth inhibition studies. […] Cells were stained with sulphorhodamine B (SRB) solution.

CaCO-2 = conditions: human

**Q.** With `COc1ccc(S(=O)(=O)Nc2cccnc2Nc2ccc(O)cc2)cc1` [ABT-751] as the compound, how does the IC50 (NCI/ADR-RES) read?
**A.** 864 ± 42 nmol/L

**Q.** And the IC50 (MDA-MB-435)?
**A.** 417 ± 23 nmol/L

**Q.** And the IC50 (MRP; MRP1 overexpressed, read-out: IC50 ± SEM (nmol/L) HEK293-MRP1)?
**A.** 717 ± 28 nmol/L

**Q.** What about the IC50 (MRP; MRP2 overexpressed, read-out: IC50 ± SEM (nmol/L) HEK293-MRP2) of the same compound?
**A.** 747 ± 7 nmol/L

**Q.** And the IC50 ([1]; A375MA2 cells, read-out: IC50 ± SEM (nmol/L) A375MA2)?
**A.** 265 ± 36 nmol/L

**Q.** What about the IC50 ([1]; Homo sapiens, HEK293-pcDNA3.1 parental cell line, read-out: IC50 ± SEM (nmol/L) HEK293 - pcDNA3.1) of the same compound?
**A.** 645 ± 153 nmol/L

**Q.** And the IC50 (OVCAR-8)?
**A.** 785 ± 17 nmol/L

**Q.** And the IC50 (WM-164; WM164, read-out: IC50 ± SEM (nM) (n=3), WM-164, Table 14A)?
**A.** 661 ± 56 nM

**Q.** What about the IC50 (WM-164; WM164, Table 14B, n=3, read-out: IC50 ± SEM (nmol/L) WM-164) of the same compound?
**A.** 661 ± 56 nM

**Q.** What about the IC50 (MDA-MB-435/LCC6MDR1) of the same compound?
**A.** 577 ± 31 nmol/L

**Q.** And the IC50 (A375)?
**A.** 685 ± 108 nmol/L

**Q.** What about the “effect on microtubules” value (WM-164 melanoma cells) of the same compound?
**A.** microtubule fragmentation

**Q.** How did the “times more active against endothelial cells than against cancer cells” value ([2]; Table 24) turn out when `COc1cccc2c1C(=O)c1c(O)c3c(c(O)c1C2=O)C[C@@](O)(C(=O)CO)C[C@@H]3O[C@H]1C[C@H](N)[C@H](O)[C@H](C)O1` [Doxorubicin] was run?
**A.** not specific to endothelial cells

**Q.** What about the “Selectivity ratio*, cancer cells/ HUVEC” value ([2]; mean IC50 in PC3 and T47D cells over HUVEC) of the same compound?
**A.** 1.4

**Q.** And the IC50 ([2]; read-out: IC50 HUVEC)?
**A.** 274 nM

**Q.** What about the “permeability of endothelial cell monolayer” value (HUVEC monolayers) of the same compound?
**A.** did not induce any change

**Q.** And the IC50 (T47D)?
**A.** 353 nM

**Q.** And the IC50 (PC-3)?
**A.** 397 nM

**Q.** For `CC(C)NCC(O)COc1cccc2ccccc12` (stereo not shown) [Propranolol], which “Papp(A→B) in CaCO-2 assay” value (CaCO-2) is on record?
**A.** Propranolol (19) 10^-6 cm/s
